Reference: US20090197906A1, “REVERSION OF MALIGNANT PHENOTYPE WITH 9-HYDROXY ELLIPTICINE DERIVATIVES” (priority 2006, published 2009)
Like-named read-outs stand apart in the source and are kept apart here.

How the values were obtained:
B16F10 [1] = experiment: cloning assay in methylcellulose (colony formation); type: cell-based, murine
Description: Cells were embedded in complete culture medium supplemented with 0.8% methylcellulose (Methocel MC4000, Sigma), seeded in triplicate into 35-mm dishes (Greiner Bio-one Ref 627102, Dominique Dutscher) and incubated at 37° C. in a humidified 5% CO2 atmosphere. The number of cells seeded was 1000 cells per dish. After one to three weeks, according to cell lines, macroscopic clones were counted.
Cells were embedded in complete culture medium supplemented with 0.8% methyl-cellulose (Methocel MC4000, Sigma), seeded in triplicate into 35-mm dishes and incubated at 37° C. in a humidified 5% CO2 atmosphere. The number of cells seeded was 1000 cells per dish. After 9 days, macroscopic clones of murine melanoma cell line B16F10 were counted.

NIH 3T3 EF = experiment: MTT cell proliferation assay; type: cell-based; settings: 3 days, read-out: Cytotoxic effect (MTT) IC50
Description: (§1) Growth studies were performed using the [3-(4,5 dimethylthiazol-2-yl)-2,5-diphenyl-2H-tetrazolium bromide] (Sigma) calorimetric assay.
(§2) About 1500 to 5000 cells, according to the cell line, were seeded in a 96-well culture plate 24 hours before adding increasing concentrations of BA016DD537 or BA016FZ539. The plate was incubated at 37° C. for 3 days. 10 μl MTT stock solution (5 mg/ml in phosphate buffer saline) was added to 90 μl of complete medium in each well, the incubation was continued for 3 h at 37° C. 100 μl of lysis buffer (10% sodium dodecyl sulfate, 1% HCl 1N; pH 4.7) was added to each well, and the plate was incubated overnight. The absorbance was determined using an Integrated EIA Management System (Labsystem) at a wavelength of 570 nm. The proliferation rates were calculated from the OD readings using the untreated cells as 100%.

Melanoma B16 cells = experiment: antitumor activity, i.p. grafted B16 melanoma, survival; type: in vivo, B6D2F1 mice
Description: Antitumor activity against B16 melanoma can be assessed in mice using i.p. graft of malignant cells followed by i.p. treatment. This type of protocol which by-pass various biodisponibility parameters gives information roughly on the maximal antitumor activity which can be expected for a given tumor.
Melanoma B16 cells (4×10^5) were injected in B6D2F1 mice using i.p. route at J0. Drugs, dissolved in sterile distilled water (0.5 ml) were injected daily using as well i.p. route from J1 to J9 at various concentrations. Control mice received distilled water only according the same protocol.
Treated and control mice were counted daily. TIC (mean survival of treated mice/mean survival of control mice) was calculated at J9.

NIH 3T3 EF cells = experiment: wound healing assay (cell motility); type: cell-based; settings: 50 nM
Description: (§3) Wound healing assay was performed to evaluate the effect of BA016DD537 on motility of malignant NIH 3T3 EF cells and melanoma cell lines B16F10 and B16BL6. All the cells were incubated at 37° C. in a humidified 5% CO2 atmosphere. About 100 000-200 000 cells were seeded in a 6-well culture plate and BA016DD537, at the different concentrations, was added 24 hours later. Cells were grown for 3 days to confluence about 90-95% and small scratch-wounds (about 200 μm-1 mm width) were made with a pipette tip. Cell debris were removed, then the cultures were incubated in complete medium for 10 h in the presence of the same concentration of BA016DD537. Then, the cells were fixed for 10 min in PBS containing 3.7% formaldehyde at 4° C.

B16BL6 melanoma cells = experiment: wound healing assay (cell motility); type: cell-based; settings: non cytotoxic concentration
Description: as §3

B16F10 [2] = experiment: MTT cell proliferation assay; type: cell-based, murine
Description: as §1, §2
(§4) Growth studies were performed using both MTT and SRB calorimetric assay (Sigma). About 1500 B16F10 or 3000 pancreatic cells (MIA PaCa-2 and PANC1) were seeded in a 96-well culture plate before adding increasing concentrations of monomesylate or bimesylate.
(§5) The plates were incubated at 37° C. for 3 days and then were treated depending on SRB or MTT protocols (see material and methods).
(§6) In these two cases, the proliferation rates were calculated from the OD readings using the untreated cells as 100%.

B16BL6 = experiment: MTT cell proliferation assay; type: cell-based; settings: B16BL6, 3 days; read-out: Cytotoxic effect (MTT) IC50
Description: as §1, §2

SK-N-MC = experiment: MTT cell proliferation assay; type: cell-based; settings: 3 days, read-out: Cytotoxic effect (MTT) IC50
Description: as §1, §2

B16F10 [3] = experiment: SRB (sulforhodamine B) cell proliferation assay; type: cell-based, murine; settings: B16F10 (Example 11); read-out: IC50 (SRB Test-72 h)
Description: as §4, §5, §6

1205 Lu = experiment: MTT cell proliferation assay; type: cell-based, human; settings: 3 days, read-out: Cytotoxic effect (MTT) IC50
Description: as §1, §2

HT144 = experiment: MTT cell proliferation assay; type: cell-based, human; settings: HT144, 3 days; read-out: Cytotoxic effect (MTT) IC50
Description: as §1, §2

Mia Paca-2 = experiment: MTT cell proliferation assay; type: cell-based, human
Description: as §1, §2

PANC-1 = experiment: MTT cell proliferation assay; type: cell-based, human
Description: as §1, §2

A375 = experiment: MTT cell proliferation assay; type: cell-based, human; settings: A375, 3 days; read-out: Cytotoxic effect (MTT) IC50
Description: as §1, §2

451 Lu = experiment: MTT cell proliferation assay; type: cell-based, human; settings: 3 days, read-out: Cytotoxic effect (MTT) IC50
Description: as §1, §2

SKMEL28 = experiment: MTT cell proliferation assay; type: cell-based, human; settings: SKMEL28, 3 days; read-out: Cytotoxic effect (MTT) IC50
Description: as §1, §2

C9 = experiment: MTT cell proliferation assay; type: cell-based, human; settings: C9, 3 days; read-out: Cytotoxic effect (MTT) IC50
Description: as §1, §2

## Cc1c2cc[n+](CCN3CCCCC3)cc2c(C)c2c1[nH]c1ccc(O)cc12.[Cl-] [BA016DD537, 2-(β-piperidinoethyl)-9-hydroxyellipticinium chloride]
B16F10 [1]; B16F10, read-out: Inhibition of colony formation (methylcellulose) IC50
  IC50: 0.035 µM
NIH 3T3 EF
  IC50: 0.4 µM
Melanoma B16 cells; 0.39 mg/kg/inj. i.p. daily J1 to J9
  T/C (%) (mean survival of treated mice/mean survival of control mice): 133%
Melanoma B16 cells; 0.78 mg/kg/inj. i.p. daily J1 to J9
  T/C (%) (mean survival of treated mice/mean survival of control mice): 149%
Melanoma B16 cells; 1.56 mg/kg/inj. i.p. daily J1 to J9
  T/C (%) (mean survival of treated mice/mean survival of control mice): 168%
Melanoma B16 cells; 3.12 mg/kg/inj. i.p. daily J1 to J9
  T/C (%) (mean survival of treated mice/mean survival of control mice): 217%
Melanoma B16 cells; 6.25 mg/kg/inj. i.p. daily J1 to J9
  T/C (%) (mean survival of treated mice/mean survival of control mice): 196%
Melanoma B16 cells; 7.5 mg/kg/inj. i.p. daily J1 to J9
  T/C (%) (mean survival of treated mice/mean survival of control mice): 210%
Melanoma B16 cells; 10 mg/kg/inj. i.p. daily J1 to J9
  T/C (%) (mean survival of treated mice/mean survival of control mice): 87%
Melanoma B16 cells; i.p. graft, i.p. treatment
  antitumor activity against B16 melanoma (T/C>125% = significant): marked antitumor activity
NIH 3T3 EF cells
  inhibition of cell migration: complete inhibition
B16BL6 melanoma cells
  inhibition of cell motility: inhibition of the B16BL6 cells motility
B16F10 [2]; B16F10, 3 days, read-out: Cytotoxic effect (MTT) IC50
  IC50: 0.5 µM

## CS(=O)(=O)[O-].Cc1c2cc[n+](CCN3CCCCC3)cc2c(C)c2c1[nH]c1ccc(O)cc12 [BA016FZ539, 2-(betapiperidino-2-ethyl)-9-hydroxyellipticinium methanesulfonate]
B16F10 [1]; B16F10, clones counted after 9 days (Example 11), listed as Monomesylate, read-out: B16F10 Inhibition of colony formation IC50
  IC50: 0.067 µM
B16BL6
  IC50: 0.212 µM
SK-N-MC
  IC50: 0.84 µM
B16F10 [3]
  IC50: 4.3 µM
B16F10 [2]; B16F10 (Example 11), read-out: IC50 (MTT Test-72 h)
  IC50: 2 µM
1205 Lu
  IC50: 1.6 µM
HT144
  IC50: 9 µM
Mia Paca-2; MIA PaCA-2, viability 72 h, mean +/− SEM (Example 9), read-out: IC50 (μM) MTT
  IC50: 7.58 µM
Mia Paca-2; Mia Paca-2, 3 days, read-out: Cytotoxic effect (MTT) IC50
  IC50: 7.6 µM
PANC-1; PANC-1, 3 days, read-out: Cytotoxic effect (MTT) IC50
  IC50: 22 µM
PANC-1; PANC-1, viability 72 h (Example 9), read-out: IC50 (μM) MTT
  IC50: 22 µM
A375
  IC50: 2.9 µM
451 Lu
  IC50: 4.2 µM
SKMEL28
  IC50: 10.7 µM
C9
  IC50: 2.1 µM
